Source: US4450269A, “Mono-5-substituted-3-chloro-4H-1,2,6-thiadiazin-4-one antifungal agents” (FMC Corporation, priority 1980, dated 1984)
Counter-ions that a name gives are not always drawn.

What was measured:
Helminthosporium oryzae = assay: Mycelial growth test; settings: for inhibition at 5 ppm / inhibition at 10 ppm / inhibition at 20 ppm / inhibition at 40 ppm: Bipolaris oryzae, 72 h; for inhibition at 5 ppm: read-out: Percent Fungus Growth Inhibition, HO, 5 ppm, 72 hours; for inhibition at 10 ppm: read-out: Percent Fungus Growth Inhibition, HO, 10 ppm, 72 hours; for inhibition at 20 ppm: read-out: Percent Fungus Growth Inhibition, HO, 20 ppm, 72 hours; for inhibition at 40 ppm: read-out: Percent Fungus Growth Inhibition, HO, 40 ppm, 72 hours; for Percent Fungus Growth Inhibition: HO, 72 hours
Erysiphe polygoni = assay: whole plant or invertebrate; settings: foliar, 24 h, read-out: Percent Disease Control, curative, bean powdery mildew

Compound | inhibition at 5 ppm (Helminthosporium oryzae) | inhibition at 10 ppm (Helminthosporium oryzae) | inhibition at 20 ppm (Helminthosporium oryzae) | inhibition at 40 ppm (Helminthosporium oryzae) | pest or weed control at 150 ppm (Erysiphe polygoni) | Percent Fungus Growth Inhibition (Helminthosporium oryzae; 5 ppm) | Percent Fungus Growth Inhibition (Helminthosporium oryzae; 40 ppm) | Percent Fungus Growth Inhibition (Helminthosporium oryzae; 5 ppm, hydrochloride) | Percent Fungus Growth Inhibition (Helminthosporium oryzae; 10 ppm, hydrochloride) | Percent Fungus Growth Inhibition (Helminthosporium oryzae; 20 ppm, hydrochloride) | Percent Fungus Growth Inhibition (Helminthosporium oryzae; 40 ppm, hydrochloride)
O=c1c(Cl)nsnc1Oc1cccc(Cl)c1Cl [Compound 19, 3-chloro-5-(2,3-dichlorophenoxy)-4H--1,2,6-thiadiazin-4-one] | 100% | 90% | 100% | 100% | – | – | – | – | – | – | –
O=c1c(Cl)nsnc1Oc1cc(Cl)cc(Cl)c1 [Compound 20, 3-chloro-5-(3,5-dichlorophenoxy)-4H--1,2,6-thiadiazin-4-one] | 100% | 100% | 100% | 100% | 100% | – | – | – | – | – | –
Cc1cccc(Oc2nsnc(Cl)c2=O)c1 [Compound 21, 3-chloro-5-(3-methylphenoxy)-4H--1,2,6-thiadiazin-4-one] | 64% | 86% | 100% | 100% | 100% | – | – | – | – | – | –
Cc1ccccc1Oc1nsnc(Cl)c1=O [Compound 22, 3-chloro-5-(2-methylphenoxy)-4H--1,2,6-thiadiazin-4-one] | 100% | 100% | 100% | 100% | 100% | – | – | – | – | – | –
Cc1ccc(Oc2nsnc(Cl)c2=O)c(C)c1 [Compound 23, 3-chloro-5-(2,4-dimethylphenoxy)-4H--1,2,6-thiadiazin-4-one] | 100% | 100% | 100% | 100% | 0% | – | – | – | – | – | –
Cc1cccc(C)c1Oc1nsnc(Cl)c1=O [Compound 24, 3-chloro-5-(2,6-dimethylphenoxy)-4H--1,2,6-thiadiazin-4-one] | 86% | 100% | 100% | 100% | 100% | – | – | – | – | – | –
Cc1cc(C)cc(Oc2nsnc(Cl)c2=O)c1 [Compound 25, 3-chloro-5-(3,5-dimethylphenoxy)-4H--1,2,6-thiadiazin-4-one] | 79% | 100% | 100% | 100% | 100% | – | – | – | – | – | –
Nc1ccc(Oc2nsnc(Cl)c2=O)cc1 [Compound 26, 5-(4-aminophenoxy)-3-chloro-4H--1,2,6-thiadiazin-4-one] | – | – | 57% | – | 0% | 43% | 100% | – | – | – | –
Nc1ccc(Oc2nsnc(Cl)c2=O)cc1 [Compound 27, 5-(4-aminophenoxy)-3-chloro-4H--1,2,6-thiadiazine-4-one hydrochloride] | – | – | – | – | – | – | – | 0% | 21% | 43% | 57%
CNC(=O)Nc1ccc(Oc2nsnc(Cl)c2=O)cc1 [Compound 28, 3-chloro-5-[4-(3-methylureido)-phenoxy]-4H--1,2,6-thiadiazin-4-one] | 29% | 29% | 21% | 64% | 50% | – | – | – | – | – | –
O=C(Nc1ccccc1)Nc1ccc(Oc2nsnc(Cl)c2=O)cc1 [Compound 29, 3-chloro-5-[4-(3-phenylureido)-phenoxy]-4H--1,2,6-thiadiazin-4-one] | 0% | 0% | 14% | 0% | 0% | – | – | – | – | – | –
O=c1c(Cl)nsnc1Oc1c(Cl)cc(Cl)cc1Cl [Compound 30, 3-chloro-5-(2,4,6-trichlorophenoxy)-4H--1,2,6-thiadiazin-4-one] | 59% | 100% | 100% | 100% | 100% | – | – | – | – | – | –
O=c1c(Cl)nsnc1Oc1c(Cl)c(Cl)c(Cl)c(Cl)c1Cl [Compound 31, 3-chloro-5-(pentachlorophenoxy)-4H--1,2,6-thiadiazine-4-one] | 57% | 86% | 57% | 100% | 100% | – | – | – | – | – | –
O=c1c(Cl)nsnc1Oc1cccc2ccccc12 [Compound 32, 3-chloro-5(1-naphthoxy)-4H-1,2,6-thiadiazin-4-one] | 100% | 63% | 100% | 100% | 90% | – | – | – | – | – | –
O=c1c(Cl)nsnc1Oc1ccccc1Br [Compound 34, 3-chloro-5-(2-bromophenoxy)-4H-1,2,6,-thiadiazin-4-one] | 74% | 74% | 100% | 100% | 95% | – | – | – | – | – | –
O=c1c(Cl)nsnc1Oc1ccc(O)cc1 [Compound 35, 3-chloro-5-(4-hydroxyphenoxy)-4H-1,2,6-thiadiazin-4-one] | 83% | 100% | 89% | 100% | 0% | – | – | – | – | – | –
Cc1cc(Oc2nsnc(Cl)c2=O)cc(C)c1Cl [Compound 59, 3-chloro-5-[(4-chloro-3,5-dimethyl)phenoxy]-4H--1,2,6-thiadiazin-4-one] | 100% | 100% | 100% | 100% | – | – | – | – | – | – | –
Cc1cc(Oc2nsnc(Cl)c2=O)cc(C)c1Br [Compound 60, 3-[(4-bromo-3,5-dimethyl)-phenoxy]-5-chloro-4H--1,2,6-thiadiazin-4-one] | 100% | 77% | 69% | 100% | – | – | – | – | – | – | –
